Measured values: US20260193242A1, “USEFUL COMPOUNDS FOR MODULATING INFLAMMATION” (FLAGSHIP PIONEERING INNOVATIONS VI, LLC, priority 2022, published 2026)

Experiments:
[1] = tested on: R848-driven NFκB reporter (SEAP) in THP-1 cells; assay: TLR7/8 (R848) stimulated NFκB reporter gene assay in THP1-Dual cells; format: cell-based; conditions: Homo sapiens, THP-1, 10 μM compound, 1 μM R848, THP1-Dual cells; read-out: R848-driven NFκB reporter gene assay (Percent inhibition at 10 μM)
Method: (§1) Compounds described herein are added to the human leukemic monocyte-like cell line THP-1 for bioactivity assessment. THP1-Dual cells (InvivoGen, San Diego, CA) feature the Lucia gene, a secreted luciferase reporter gene, under the control of an ISG54 minimal promoter in conjunction with five IFN-stimulated response elements. THP1-Dual cells also express a secreted embryonic alkaline phosphatase (SEAP) reporter gene driven by an IFN-β minimal promoter fused to five copies of the NF-κB consensus transcriptional response element and three copies of the c-Rel binding site. As a result, THP1-Dual cells allow the simultaneous study of the NF-κB pathway, by monitoring the activity of SEAP, and the IRF pathway, by assessing the activity of Lucia luciferase.
(§2) THP-1 dual reporter cells were grown in RPMI 1640 culture medium with 2 mM L-glutamine, 25 mM HEPES, 10% heat-inactivated fetal bovine serum, 100 μg/ml Normocin antibiotic (InvivoGen), Pen-Strep antibiotic (100 U/ml-100 μg/ml, InvivoGen). On the day of the assay, cells were seeded in a 384 flat-bottom well plate at 25,000 cells/well and incubated for 2 hours. Cells were then incubated with 10 μM of the compounds described herein or with 1 μM of IKK-16 (Selleck), a potent inhibitor of IκB kinases (IKKs) or with DMSO (vehicle control) for 2 hours, followed by the addition of the synthetic TLR7/8 agonist R848 at 1 μM and incubation for 16 hours. After incubation was concluded, the cultures supernatants were collected and IRF related activity was assessed by measurement of the Lucia luciferase, using Quanti-Luc assay (InvivoGen). NF-κB pathway activity was assessed by quantifying SEAP using Quanti-Blue assay (InvivoGen).

[2] = tested on: R848-driven IRF reporter (Lucia luciferase, ISG54 promoter/IFN-stimulated response elements) in THP-1 cells; assay: TLR7/8 (R848) stimulated interferon response element reporter gene assay in THP1-Dual cells; format: cell-based; conditions: Homo sapiens, THP-1, 10 μM compound, 1 μM R848, THP1-Dual cells; read-out: R848-driven IRF reporter gene assay (Percent inhibition at 10 μM)
Method: as §1, §2

[3] = tested on: TNBS-induced colitis, Balb/c mice; assay: TNBS-induced model of colitis in mice, dosing from day -1, prophylactic mode; format: in vivo; conditions: for IL-1ß in plasma / IL-6 in plasma: vs Vehicle group; for pathological score (crypt structure failure, inflammatory cell infiltration): H&E colon
Method: (§3) Female Balb/c mice aged 8 weeks and weighing 18-20 g were housed under standard conditions. The mice were divided into groups with 8-10 mice in each group by body weight. Mice in sham group received intracolonic injection with 50% ethanol (0.1 mL) at day 0, whereas mice in other Trinitrobenzene sulfonic acid (TNBS) colitis model groups received intracolonic injection of 2% TNBS solution in ethanol (0.1 mL) at day 0. The reference compound Mesalazine (Selleck) and test articles described here were dosed from day-1 to day 6. Day 6 was the endpoint, and samples were immediately harvested for the last endpoint. Mesalazine was dissolved in distilled water (pH 7.0) and test articles were dissolved in Phosal 50 PG for delivery by oral gavage.
As noted, dosing of the compounds described herein, as well as the positive control mesalamine, began one day before TNBS administration. Animals in this scenario have not yet developed colitis symptoms before administration of test articles. For this reason, we refer to these conditions as “prophylactic mode”.
(§4) Body weight and Disease Activity Index (DAI) scores were recorded daily to assess the colitis. DAI score was the sum of the weight loss score, stool score and bleeding sub-scores. A blinded scoring system was employed to assess the colitis. The DAI scorer blinded to the group information and animal ID was responsible for the stool consistency and bleeding evaluations. If there was no blood visible with naked eyes, the Fecal occult blood (FOB) test was performed with a fecal occult blood test strip (the improved pyramidon method).
(§5) Colon tissue morphology, damage and healing were assessed by histopathology. The colons were harvested, mesentery and adipose tissue were carefully removed, and internal contents were removed by rinsing with cold PBS. The colons were Swiss-rolled and fixed in neutralized paraformaldehyde followed by H&E staining. Clinical pathologists reviewed the H&E staining and scored blinded with animal ID. The pathological scoring standards were: crypt architecture (normal, 0-severe crypt distortion with loss of entire crypts, 3), degree of inflammatory cell infiltration (normal, 0-dense inflammatory infiltrate, 3), muscle thickening (base of crypt sits on the muscularis mucosae, 0-marked muscle thickening present, 3), goblet cell depletion (absent, 0-present, 1) and crypt abscess (absent, 0-present, 1).
The plasma was collected at Day-1 for PK and cytokine (IL-1ß and IL-6) analysis by mandibular venipuncture.
(§6) The data was compared by ANOVA with post-hoc Dunnett's multiple comparisons test using Graph Pad Prism 7.0 software (San Diego, CA, USA). P-value<0.05 was considered as statistically significant difference. For pairwise comparison of histology scores and cytokines, unpaired t-test was used to calculate statistical significance. Data was expressed as mean±standard error of mean. In figures, statistical significance is denoted by asterisks: *p<0.05 **p<0.01 ***p<0.005, ****p<0.0001.

[4] = tested on: TNBS-induced colitis, Balb/c mice; assay: TNBS-induced model of colitis in mice, dosing from day 2, therapeutic mode; format: in vivo; conditions: for IL-1B in plasma / IL-6 in plasma: dosing from day 2, vs Vehicle group
Method: as §3, §4, §5, §6
Procedures were identical to those in Example 26, except that dosing of the compounds described herein, as well as the positive control mesalamine, began on the second day after TNBS administration, as diagrammed in FIG. 18. Animals in this scenario have developed colitis symptoms before administration of test articles. This is more similar to the clinical scenario with patients with inflammatory bowel disorder presenting with symptoms. For this reason, we refer to these conditions as “therapeutic mode”.

[5] = tested on: LPS induced septic shock, C57/B6L mice; assay: LPS induced septic shock model in mice; format: in vivo
Method: In the LPS induced septic shock model in mice, the TLR4 agonist LPS is injected into the peritoneal cavity of mice, inducing production of pro-inflammatory cytokines that can be measured in blood two hours later (FIG. 2).
Female C57/B6L mice, 5 mice in each group, were injected with LPS (1 mg/kg) to induce septic shock 30 minutes after oral administration of compounds described herein (formulated in Phosal 50) or the controls dexamethasone (formulated in saline), a corticosteroid, and MCC950 (formulated in 0.5% methylcellulose), an inflammasome inhibitor. The mice were euthanized 2 hours after LPS stimulation, and the whole blood was drawn, processed to plasma, and snap frozen. Cytokine levels in plasma were determined by cytometric bead array assay.

[6] = 30 mg/kg PO, QD, dosing from day 2
[7] = 30 mg/kg PO in Phosal 50, 30 min before LPS 1 mg/kg, plasma 2 hours after LPS, vs vehicle

CN1[C@@H](C(=O)O)CC[C@@H]1[C@@H]1COC(c2ccccc2O)=N1 [Compound I-1, (2R,5R)-5-((R)-2-(2-hydroxyphenyl)-4,5-dihydrooxazol-4-yl)-1-methylpyrrolidine-2-carboxylic acid]
inhibition at 10 µM [1]: 10% | inhibition at 10 µM [2]: 20%

CN1[C@@H](C(=O)O)CC[C@H]1[C@@H]1COC(c2ccccc2O)=N1 [Compound I-2, (2R,5S)-5-((R)-2-(2-hydroxyphenyl)-4,5-dihydrooxazol-4-yl)-1-methylpyrrolidine-2-carboxylic acid]
inhibition at 10 µM [1]: 5% | inhibition at 10 µM [2]: 31%

CN1[C@@H](C(=O)O)CC[C@@H]1[C@@H]1CSC(c2ccccc2O)=N1 [Compound I-3, (2R,5R)-5-((R)-2-(2-hydroxyphenyl)-4,5-dihydrothiazol-4-yl)-1-methylpyrrolidine-2-carboxylic acid]
inhibition at 10 µM [1]: 40% | body weight (% initial weight) recovery ([3]; 30 mg/kg, PO, QD, day -1 to day 6): faster recovery rate | total histology scores ([3]; 1, 3, 10 and 30 mg/kg PO, QD): lower | Disease Activity Index (DAI) scores ([3]; 1, 3, 10 and 30 mg/kg PO, QD, day -1 to day 6): dose-dependent improvement | IL-1ß in plasma ([3]; 1, 3, 10 and 30 mg/kg PO, QD): decreased | IL-6 in plasma ([3]; 1, 3, 10 and 30 mg/kg PO, QD): decreased | pathological score (crypt structure failure, inflammatory cell infiltration) ([3]; 1, 3, 10 and 30 mg/kg PO, QD): lower | ED50 ([3]; Mus musculus, 144 h, PO, QD, day -1 to day 6, read-out: dose for half maximal effect or ED50 (DAI score at Day 6)): 15 mg/kg | colon recovery and mucosal healing ([3]; in a dose-dependent manner, prophylactic mode): promoted the colon recovery and mucosal healing | inhibition at 10 µM [2]: ≥ 50% | Disease Activity Index (DAI) scores [4, 6]: improvement | body weight (% initial weight) recovery [4, 6]: faster recovery rate | total histology scores [4, 6]: lower | IL-1B in plasma ([4]; 30 mg/kg PO, QD): decreased | IL-6 in plasma ([4]; 30 mg/kg PO, QD): decreased | colon recovery and mucosal healing ([4]; therapeutic mode): promoted the colon recovery and mucosal healing | IFNγ in plasma [5, 7]: statistically significant decreases | IL-12p70 in plasma [5, 7]: statistically significant decreases | TNFα in plasma [5, 7]: statistically significant decreases

CNC(=O)[C@H]1CC[C@@H]([C@@H]2CSC(c3ccccc3O)=N2)N1C [Compound I-5, (2R,5S)-5-((R)-2-(2-hydroxyphenyl)-4,5-dihydrothiazol-4-yl)-N,1-dimethyl pyrrolidine-2-carboxamide]
inhibition at 10 µM [1]: 27% | inhibition at 10 µM [2]: 17%

COCCOCCOc1ccc(C2=N[C@H]([C@@H]3CC[C@H](C(=O)O)N3C)CO2)c(O)c1 [Compound I-7, (2R,5S)-5-((R)-2-(2-hydroxy-4-(2-(2-methoxyethoxy)ethoxy)phenyl)-4,5-dihydrooxazol-4-yl)-1-methylpyrrolidine-2-carboxylic acid]
inhibition at 10 µM [1]: 28% | inhibition at 10 µM [2]: ≥ 50%

COCCOCCOc1ccc(C2=N[C@H]([C@@H]3CC[C@H](C(=O)O)N3C)CS2)c(O)c1 [Compound I-8, (2R,5S)-5-((R)-2-(2-hydroxy-4-(2-(2-methoxyethoxy)ethoxy)phenyl)-4,5-dihydrothiazol-4-yl)-1-methylpyrrolidine-2-carboxylic acid]
inhibition at 10 µM [1]: ≥ 50% | inhibition at 10 µM [2]: ≥ 50%

COCCOCCOc1ccc(C2=N[C@H]([C@H]3CC[C@H](C(=O)O)N3C)CS2)c(O)c1 [Compound I-10, (2R,5R)-5-((R)-2-(2-hydroxy-4-(2-(2-methoxyethoxy)ethoxy)phenyl)-4,5-dihydrothiazol-4-yl)-1-methylpyrrolidine-2-carboxylic acid]
inhibition at 10 µM [1]: 14% | inhibition at 10 µM [2]: 3%

CN1[C@@H](C(=O)O)CC[C@@H]1[C@@H]1COC(c2ncccc2O)=N1 [Compound I-11, (2R,5R)-5-((R)-2-(3-hydroxypyridin-2-yl)-4,5-dihydrooxazol-4-yl)-1-methylpyrrolidine-2-carboxylic acid]
inhibition at 10 µM [1]: 6% | inhibition at 10 µM [2]: 5%

Nc1ccc(O)c(C(=O)O)c1 [Mesalazine, reference compound]
total histology scores ([3]; 100 mg/kg PO, QD): lower | pathological score (crypt structure failure, inflammatory cell infiltration) ([3]; 100 mg/kg PO, QD): lower | body weight (% initial weight) recovery ([3]; 100 mg/kg, QD, day -1 to day 6): faster recovery rate | IL-1ß in plasma ([3]; 100 mg/kg, QD): decreased | IL-6 in plasma ([3]; 100 mg/kg, QD): decreased | total histology scores ([4]; 100 mg/kg PO, QD, dosing from day 2): lower | body weight (% initial weight) recovery ([4]; 100 mg/kg, QD, dosing from day 2): faster recovery rate | IL-1B in plasma ([4]; 100 mg/kg, QD): decreased | IL-6 in plasma ([4]; 100 mg/kg, QD): decreased

C[C@@H]1C[C@H]2[C@@H]3CCC4=CC(=O)C=C[C@]4(C)[C@@]3(F)[C@@H](O)C[C@]2(C)[C@@]1(O)C(=O)CO [dexamethasone, reference compound]
activity on plasma cytokines (positive control) ([5]; 1.5 mg/kg PO, formulated in saline): active
